In ChEMBL document CHEMBL3526057 (Drug Metab Dispos, 2011):

Key:
Format in all cases: ADME
Settings in all cases: recombinant enzyme, 1 h
Cytochrome P450 2C19 [1] = biological target: T1, Cytochrome P450 2C19 (Homo sapiens, UniProt P33261, M74T); assay: Activity of human recombinant CYP2C19 M74T mutant expressed in Saccharomyces cerevisiae BJ5457 assessed asomeprazole 5'-hydroxylation after 60 mins
Cytochrome P450 2C19 [2] = biological target: Cytochrome P450 2C19 (Homo sapiens, UniProt P33261, D360N); assay: Activity of human recombinant CYP2C19 D360N mutant expressed in Saccharomyces cerevisiae BJ5457 assessed asomeprazole 5'-hydroxylation per pmol protein after 60 mins
Cytochrome P450 2C19 [3] = biological target: T2, Cytochrome P450 2C19 (Homo sapiens, UniProt P33261, I19L); assay: Activity of human recombinant CYP2C19.15 mutant expressed in Saccharomyces cerevisiae BJ5457 assessed as intrinisic clearance foromeprazole 5'-hydroxylation per pmol protein after 60 mins
Cytochrome P450 2C19 [4] = biological target: T1, Cytochrome P450 2C19; assay: Activity of human recombinant CYP2C19 M74T mutant expressed in Saccharomyces cerevisiae BJ5457 assessed as omeprazole 5'-hydroxylation per pmol protein at 100 uM after 60 mins
Cytochrome P450 2C19 [5] = biological target: T3, Cytochrome P450 2C19 (Homo sapiens, UniProt P33261, L17P); assay: Activity of human recombinant CYP2C19.14 mutant expressed in Saccharomyces cerevisiae BJ5457 assessed as intrinisic clearance foromeprazole 5'-hydroxylation per pmol protein after 60 mins
Cytochrome P450 2C19 [6] = biological target: T4, Cytochrome P450 2C19 (Homo sapiens, UniProt P33261, V331I/R442C); assay: Activity of human recombinant CYP2C19.16 mutant expressed in Saccharomyces cerevisiae BJ5457 assessed as omeprazole 5'-hydroxylation per pmol protein at 100 uM after 60 mins
Cytochrome P450 2C19 [7] = biological target: Cytochrome P450 2C19 (Homo sapiens, UniProt P33261, A161P); assay: Activity of human recombinant CYP2C19 A161P mutant expressed in Saccharomyces cerevisiae BJ5457 assessed asomeprazole 5'-hydroxylation after 60 mins
Cytochrome P450 2C19 [8] = biological target: Cytochrome P450 2C19 (Homo sapiens, UniProt P33261, F168L); assay: Activity of human recombinant CYP2C19 F168L mutant expressed in Saccharomyces cerevisiae BJ5457 assessed asomeprazole 5'-hydroxylation after 60 mins
Cytochrome P450 2C19 [9] = biological target: T3, Cytochrome P450 2C19; assay: Activity of human recombinant CYP2C19.14 mutant expressed in Saccharomyces cerevisiae BJ5457 assessed as omeprazole 5'-hydroxylation per pmol protein at 100 uM after 60 mins
Cytochrome P450 2C19 [10] = biological target: Cytochrome P450 2C19 (Homo sapiens, UniProt P33261, S51G); assay: Activity of human recombinant CYP2C19.19 mutant expressed in Saccharomyces cerevisiae BJ5457 assessed as intrinisic clearance foromeprazole 5'-hydroxylation per pmol protein after 60 mins
Cytochrome P450 2C19 [11] = biological target: Cytochrome P450 2C19 (Homo sapiens, UniProt P33261, P227L); assay: Activity of human recombinant CYP2C19.10 mutant expressed in Saccharomyces cerevisiae BJ5457 assessed asomeprazole 5'-hydroxylation after 60 mins
Cytochrome P450 2C19 [12] = biological target: T3, Cytochrome P450 2C19; assay: Activity of human recombinant CYP2C19.14 mutant expressed in Saccharomyces cerevisiae BJ5457 assessed asomeprazole 5'-hydroxylation per pmol protein after 60 mins
Cytochrome P450 2C19 [13] = biological target: Cytochrome P450 2C19 (Homo sapiens, UniProt P33261, R410C); assay: Activity of human recombinant CYP2C19.13 mutant expressed in Saccharomyces cerevisiae BJ5457 assessed as intrinisic clearance foromeprazole 5'-hydroxylation per pmol protein after 60 mins
Cytochrome P450 2C19 [14] = biological target: Cytochrome P450 2C19 (Homo sapiens, UniProt P33261, W212C); assay: Activity of human recombinant CYP2C19 W212C mutant expressed in Saccharomyces cerevisiae BJ5457 assessed asomeprazole 5'-hydroxylation after 60 mins
Cytochrome P450 2C19 [15] = biological target: T5, Cytochrome P450 2C19 (Homo sapiens, UniProt P33261, R144H); assay: Activity of human recombinant CYP2C19.9 mutant expressed in Saccharomyces cerevisiae BJ5457 assessed as omeprazole 5'-hydroxylation per pmol protein at 100 uM after 60 mins
Cytochrome P450 2C19 [16] = biological target: T6, Cytochrome P450 2C19 (Homo sapiens, UniProt P33261); assay: Activity of human recombinant CYP2C19.1A mutant expressed in Saccharomyces cerevisiae BJ5457 assessed asomeprazole 5'-hydroxylation per pmol protein after 60 mins
Cytochrome P450 2C19 [17] = biological target: T6, Cytochrome P450 2C19; assay: Activity of human recombinant CYP2C19.1A mutant expressed in Saccharomyces cerevisiae BJ5457 assessed asomeprazole 5'-hydroxylation after 60 mins
Cytochrome P450 2C19 [18] = biological target: T5, Cytochrome P450 2C19; assay: Activity of human recombinant CYP2C19.9 mutant expressed in Saccharomyces cerevisiae BJ5457 assessed asomeprazole 5'-hydroxylation per pmol protein after 60 mins
Cytochrome P450 2C19 [19] = biological target: Cytochrome P450 2C19 (Homo sapiens, UniProt P33261, R433W); assay: Activity of human recombinant CYP2C19.5B mutant expressed in Saccharomyces cerevisiae BJ5457 assessed as omeprazole 5'-hydroxylation per pmol protein at 5 uM after 60 mins
Cytochrome P450 2C19 [20] = biological target: T7, Cytochrome P450 2C19 (Homo sapiens, UniProt P33261, R329H); assay: Activity of human recombinant CYP2C19.18 mutant expressed in Saccharomyces cerevisiae BJ5457 assessed as intrinisic clearance foromeprazole 5'-hydroxylation per pmol protein after 60 mins
Cytochrome P450 2C19 [21] = biological target: T4, Cytochrome P450 2C19; assay: Activity of human recombinant CYP2C19.16 mutant expressed in Saccharomyces cerevisiae BJ5457 assessed as intrinisic clearance foromeprazole 5'-hydroxylation per pmol protein after 60 mins
Cytochrome P450 2C19 [22] = biological target: T8, Cytochrome P450 2C19 (Homo sapiens, UniProt P33261, R150H); assay: Activity of human recombinant CYP2C19.11 mutant expressed in Saccharomyces cerevisiae BJ5457 assessed as omeprazole 5'-hydroxylation per pmol protein at 100 uM after 60 mins
Cytochrome P450 2C19 [23] = biological target: T9, Cytochrome P450 2C19 (Homo sapiens, UniProt P33261, E122A); assay: Activity of human recombinant CYP2C19 E122A mutant expressed in Saccharomyces cerevisiae BJ5457 assessed as omeprazole 5'-hydroxylation per pmol protein at 100 uM after 60 mins
Cytochrome P450 2C19 [24] = biological target: T2, Cytochrome P450 2C19; assay: Activity of human recombinant CYP2C19.15 mutant expressed in Saccharomyces cerevisiae BJ5457 assessed as omeprazole 5'-hydroxylation per pmol protein at 100 uM after 60 mins
Cytochrome P450 2C19 [25] = biological target: T8, Cytochrome P450 2C19; assay: Activity of human recombinant CYP2C19.11 mutant expressed in Saccharomyces cerevisiae BJ5457 assessed as omeprazole 5'-hydroxylation per pmol protein at 5 uM after 60 mins
Cytochrome P450 2C19 [26] = biological target: T8, Cytochrome P450 2C19; assay: Activity of human recombinant CYP2C19.11 mutant expressed in Saccharomyces cerevisiae BJ5457 assessed asomeprazole 5'-hydroxylation after 60 mins
Cytochrome P450 2C19 [27] = biological target: Cytochrome P450 2C19 (Homo sapiens, UniProt P33261, E92D); assay: Activity of human recombinant CYP2C19 E92D mutant expressed in Saccharomyces cerevisiae BJ5457 assessed asomeprazole 5'-hydroxylation per pmol protein after 60 mins
Cytochrome P450 2C19 [28] = biological target: T1, Cytochrome P450 2C19; assay: Activity of human recombinant CYP2C19 M74T mutant expressed in Saccharomyces cerevisiae BJ5457 assessed as intrinisic clearance foromeprazole 5'-hydroxylation per pmol protein after 60 mins
Cytochrome P450 2C19 [29] = biological target: T9, Cytochrome P450 2C19; assay: Activity of human recombinant CYP2C19 E122A mutant expressed in Saccharomyces cerevisiae BJ5457 assessed asomeprazole 5'-hydroxylation after 60 mins
Cytochrome P450 2C19 [30] = biological target: T7, Cytochrome P450 2C19; assay: Activity of human recombinant CYP2C19.18 mutant expressed in Saccharomyces cerevisiae BJ5457 assessed asomeprazole 5'-hydroxylation per pmol protein after 60 mins
Cytochrome P450 2C19 [31] = biological target: T9, Cytochrome P450 2C19; assay: Activity of human recombinant CYP2C19 E122A mutant expressed in Saccharomyces cerevisiae BJ5457 assessed asomeprazole 5'-hydroxylation per pmol protein after 60 mins

Compound: COc1ccc2[nH]c([S+]([O-])Cc3ncc(C)c(OC)c3C)nc2c1 (stereo unspecified) [OMEPRAZOLE]
- Km (Cytochrome P450 2C19 [1]): 3.62 µM
- Vmax (Cytochrome P450 2C19 [2]): 4.11 pmol/min
- CL (Cytochrome P450 2C19 [3]): 1.21 µL/min
- Drug metabolism (Cytochrome P450 2C19 [4]): 4.27 pmol/min
- CL (Cytochrome P450 2C19 [5]): 1.91 µL/min
- Drug metabolism (Cytochrome P450 2C19 [6]): 1.41 pmol/min
- Km (Cytochrome P450 2C19 [7]): 6.68 µM
- Km (Cytochrome P450 2C19 [8]): 6.56 µM
- Drug metabolism (Cytochrome P450 2C19 [9]): 8.25 pmol/min
- CL (Cytochrome P450 2C19 [10]): 0.66 µL/min
- Km (Cytochrome P450 2C19 [11]): 10.6 µM
- Vmax (Cytochrome P450 2C19 [12]): 8.05 pmol/min
- CL (Cytochrome P450 2C19 [13]): 1.54 µL/min
- Km (Cytochrome P450 2C19 [14]): 11.2 µM
- Drug metabolism (Cytochrome P450 2C19 [15]): 5.48 pmol/min
- Vmax (Cytochrome P450 2C19 [16]): 7.97 pmol/min
- Km (Cytochrome P450 2C19 [17]): 5.42 µM
- Vmax (Cytochrome P450 2C19 [18]): 6.21 pmol/min
- Drug metabolism (Cytochrome P450 2C19 [19]): metabolite_not_detected
- CL (Cytochrome P450 2C19 [20]): 1.3 µL/min
- CL (Cytochrome P450 2C19 [21]): 0.41 µL/min
- Drug metabolism (Cytochrome P450 2C19 [22]): 6.38 pmol/min
- Drug metabolism (Cytochrome P450 2C19 [23]): 4.71 pmol/min
- Drug metabolism (Cytochrome P450 2C19 [24]): 7.81 pmol/min
- Drug metabolism (Cytochrome P450 2C19 [25]): 2.84 pmol/min
- Km (Cytochrome P450 2C19 [26]): 4.91 µM
- Vmax (Cytochrome P450 2C19 [27]): 6.93 pmol/min
- CL (Cytochrome P450 2C19 [28]): 1.11 µL/min
- Km (Cytochrome P450 2C19 [29]): 12.3 µM
- Vmax (Cytochrome P450 2C19 [30]): 7.77 pmol/min
- Vmax (Cytochrome P450 2C19 [31]): 4.89 pmol/min
